PubChem BioAssay AID2060605 (Molecular Pharmacology Branch, DTP, NCI, 2025)
Values joined by “and” are separate entries in the source; they are usually repeats but may differ in a detail not shown here. Identical values can stand only once. Active and inactive are the calls of the source. How the source made its calls: active means viability on the fitted dose curve at most 10% of control; inactive means the rest.

Tested on: 947758-054-R-J2-PDC spheroid growth, percent test/control
Experiment: Anticancer human tumor 947758-054-R-J2-PDC patient-derived colon adenocarcinoma cell line growth inhibition [CLK]
Conditions: spheroids with HUVEC and MSC; for viability, T/C: stronger effect = lower value; for IC50: curve of compound
Description: A high-throughput screen of multi-cell type tumor spheroids was designed to identify active combinations of […] and targeted small molecules. Complex spheroids include a stromal component modeled by human endothelial cells (HUVEC) and fibroblasts modeled by human mesenchymal stem cells (MSCs). The concentration ranges selected for each drug and investigational agent were based upon clinically achievable concentrations if the clinical Cmax of the agent was known.
Compounds. The drugs and investigational agents: cirtuvivint (SM08502; NSC835563), CC-671 (NSC850746), vemurafenib (NSC761431), tapotoclax (NSC804041), sotorasib (NSC818433), adagrasib (NSC831453), MRTX-1133 (NSC836407), BAY2416964 (NSC825713), copanlisib (NSC816437), inavolisib (NSC800729), abemaciclib (NSC768073), osimertinib (NSC779217), entinostat (NSC756642), eltanexor (KPT-8602, NSC794443), venetoclax (NSC766270), ceralasertib (NSC777638), bortezomib (NSC756655), olaparib (NSC753686), talazoparib (NSC767125), alisertib (NSC759677), peposertib (NSC802822), gemcitabine (NSC613327), 5-fluorouracil (NSC19893), SN-38 (NSC673596), oxaliplatin (NSC266046), paclitaxel (NSC125973), and doxorubicin (NSC123127), were obtained from the National Cancer Institute (NCI) Developmental Therapeutics Program Chemical Repository. The FDA-approved anticancer drug set is available from the Developmental Therapeutics Program at https://dtp.cancer.gov/organization/dscb/obtaining/available plates.htm. […] The stock solutions were prepared in dimethyl sulfoxide (DMSO, Sigma-Aldrich, St. Louis, MO, cat. D2650), except for the platinum complexes which were prepared in saline (Quality Biological, Gaithersburg, MD, cat. 114-055-101), at 800-fold the tested concentration and stored at -70 degrees C prior to their use. All drugs and investigational agents were tested over a range starting from a high concentration at or near the clinical Cmax and decreasing in half-log increments. If the clinical Cmax for an agent had not been determined, the highest concentration tested was 10 microM.
Cell Culture. All cells were maintained in an incubator at 37 degrees C and 5% CO2 with 95% humidity. The PDC lines were cultured according to standard operating procedures established by the NCI PDMR. Briefly, all PDCs were thawed and cultured in Matrigel-coated flasks prepared with a working solution of 1X Ham's F-12 nutrient mix, without supplementation (Invitrogen, Waltham, MA, cat. 11765054), 100 U/mL penicillin-streptomycin (Invitrogen, cat. 15140122), and 2.5% Matrigel (Corning Inc., Corning, NY, cat. 354248) for the first three passages. The 947758-054-R-J2-PDC line was cultured in 6B/Colon 1A media, which includes advanced DMEM/F-12 (Thermo Fisher Scientific, cat. 12634028), 10 mM HEPES (Thermo Fisher Scientific, cat. 15630080), 1X GlutaMAX supplement (Thermo Fisher Scientific, cat. 35050061), 0.1 mg/mL primocin (InvivoGen, cat. ant-pm-2), 10% defined fetal bovine serum, heat inactivated (HyClone Laboratories Inc., cat. SH30070.03HI), 1.25 mM N-Acetyl-L-cysteine (Sigma-Aldrich, cat. A9165), 10 mM nicotinamide (Sigma-Aldrich, cat. N0636), 1X B-27 supplement (Thermo Fisher Scientific, cat. 17504044), 1X N-2 supplement (Thermo Fisher Scientific, cat. 17502048), and 10 microM Y-27632 dihydrochloride (Tocris Bioscience, cat. 1254). The 876862-298-R-J1-PDC was cultured in 6E media, which includes all 6B/Colon 1A media components plus 50% L-WRN conditioned media (ATCC, cat. CRL-3276), 50 ng/mL recombinant human EGF recombinant protein (hEGF; Thermo Fisher Scientific, cat. PHG0311), 10 ng/mL recombinant human fibroblast growth factor 10 (hGFG-10; PeproTech, cat. 100-26), 1 ng/mL recombinant human fibroblast growth factor 2 (hFGF-2; PeproTech, cat. 100-18B), and 1 µM prostaglandin E2 (PGE2; Tocris, cat. 2296). The 227483-062-R1-J1-PDC line was cultured in Panc media, containing all 6E components except hFGF-2, with the addition of 500 nM SB-431542 (Selleckchem, cat. S1067) and 10 nM gastrin (Tocris, cat. 3006). […]
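Further: spheroids exposed to compounds for one week before readout.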
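Wherever viability, T/C is given: 100% = DMSO vehicle control wells.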

SMILES | viability, T/C (compound 0.0316 µM) | viability, T/C (compound 0.1 µM) | viability, T/C (compound 0.316 µM) | viability, T/C (compound 1 µM) | viability, T/C (compound 3.16 µM) | viability, T/C (compound 10 µM) | IC50 | further results
C#Cc1c(F)ccc2cc(O)cc(-c3ncc4c(N5CC6CCC(C5)N6)nc(OCC56CCCN5CC(F)C6)nc4c3F)c12 (stereo not given) | 97% and 82.7% | 90.4% and 83.7% | 100% and 88% | 80% and 85.2% | 87.3% and 82.6% | 87.5% and 88% | > 10 µM | 
C=C(F)C(=O)N1CCN(c2nc(OCC3CCCN3C)nc3c2CCN(c2cccc4cccc(Cl)c24)C3)CC1CC#N (stereo not given) | 97% and 92.3% | 89.9% and 87.2% | 87% and 84% | 95.5% and 86.5% | 144% and 135% | 20% and 21.4% | 6.6 µM and 6.47 µM | 
C=CC(=O)N1CCN(c2nc(=O)n(-c3c(C)ccnc3C(C)C)c3nc(-c4c(O)cccc4F)c(F)cc23)C(C)C1 (stereo not given) | 115% and 77.6% | 77.8% and 82.6% | 106% and 101% | 75.6% and 75% | 81.2% and 90.3% | 94.7% and 77.3% | > 10 µM | 
C=CC(=O)Nc1cc(Nc2nccc(-c3cn(C)c4ccccc34)n2)c(OC)cc1N(C)CCN(C)C |  |  |  |  |  |  | > 0.3 µM | viability, T/C (compound 0.000949 µM): 85.6% and 108%; viability, T/C (compound 0.003 µM): 62.3% and 94.7%; viability, T/C (compound 0.00949 µM): 90.8% and 103%; viability, T/C (compound 0.03 µM): 94.7% and 69.1%; viability, T/C (compound 0.0949 µM): 74.3% and 92.2%; viability, T/C (compound 0.3 µM): 87.2% and 78.5%
CC(C)CC(NC(=O)C(Cc1ccccc1)NC(=O)c1cnccn1)B(O)O (stereo not given) |  |  |  |  |  |  | 0.0016 µM and 0.00154 µM | viability, T/C (compound 0.000949 µM): 89.3% and 86%; viability, T/C (compound 0.003 µM): 2.43% and 0.8%; viability, T/C (compound 0.00949 µM): 0.17% and 0.23%; viability, T/C (compound 0.03 µM): 0.24% and 0.3%; viability, T/C (compound 0.0949 µM): 0.19% and 0.27%; viability, T/C (compound 0.3 µM): 0.24% and 0.28%
CC(CO)NC(=O)c1cc(-c2ccc(Cl)cc2)nn(-c2cnn(C)c2)c1=O (stereo not given) | 92.8% and 77.6% | 84.2% and 87.1% | 94.1% and 107% | 97.6% and 75.3% | 108% and 92.3% | 112% and 114% | > 10 µM | 
CC(Nc1ccc2c(c1)OCCn1cc(N3C(=O)OCC3C(F)F)nc1-2)C(N)=O (stereo not given) | 106% and 109% | 96.5% and 102% | 99.4% and 98.8% | 93% and 85.2% | 92.2% and 93.3% | 93.6% and 88.5% | > 10 µM | 
CC1(C)CCC(CN2CCN(c3ccc(C(=O)NS(=O)(=O)c4ccc(NCC5CCOCC5)c([N+](=O)[O-])c4)c(Oc4cnc5[nH]ccc5c4)c3)CC2)=C(c2ccc(Cl)cc2)C1 | 97.8% and 118% | 77.6% and 97.2% | 97.4% and 110% | 94.5% and 86.3% | 79.5% and 87.2% | 11.8% and 7.38% | 5.23 µM and 5.17 µM | 
CC1COCCN1c1cc(C2(S(C)(=N)=O)CC2)nc(-c2ccnc3[nH]ccc23)n1 (stereo not given) | 110% and 128% | 92.4% and 100% | 79.1% and 102% | 111% and 108% | 202% | 26.1% and 28.4% | 7.43 µM and 6.37 µM | outcome (compound 3.16 µM): inactive
CCCS(=O)(=O)Nc1ccc(F)c(C(=O)c2c[nH]c3ncc(-c4ccc(Cl)cc4)cc23)c1F | 81.8% and 79.5% | 79.8% and 65% | 79.4% and 71% | 77.4% and 68.7% | 83.3% and 76.3% | 80.2% and 70.7% | > 10 µM | 
CCN1CCN(Cc2ccc(Nc3ncc(F)c(-c4cc(F)c5nc(C)n(C(C)C)c5c4)n3)nc2)CC1 | 139% and 190% | 164% and 182% | 130% and 126% | 43% and 55.8% |  |  | 0.9 µM and > 1 µM | viability, T/C (compound 0.00316 µM): 81.3% and 94.8%; viability, T/C (compound 0.01 µM): 81.6% and 106%
CCc1c2c(nc3ccc(O)cc13)-c1cc3c(c(=O)n1C2)COC(=O)[C@]3(O)CC | 23.7% and 20.8% | 18.7% and 19% | 8.36% and 8.83% | 3.07% and 3.43% |  |  | 0.00848 µM and 0.00707 µM | viability, T/C (compound 0.00316 µM): 120% and 84.1%; viability, T/C (compound 0.01 µM): 34.2% and 32%
CNC(=O)c1ccc(Nc2nc(OC3CCCC3)c3c(-c4ccc5nc(C)oc5c4)c[nH]c3n2)c(OC)c1 | 62.2% [middle of 12 runs] |  |  | 56.2% [middle of 12 runs] | 45.1% [middle of 12 runs] | 36.8% [middle of 12 runs] |  | 
COC1C=CCC(C)C(C)S(=O)(=O)NC(=O)c2ccc3c(c2)N(CC2CCC21)CC1(CCCc2cc(Cl)ccc21)CO3 (stereo not given) | 99.1% and 84.9% | 77.1% and 86.7% | 101% and 100% | 75.3% and 81.2% | 94.4% and 83.8% | 41.3% and 42.6% | 8.14 µM and 8.09 µM | 
COc1c(OCCCN2CCOCC2)ccc2c3n(c(=NC(=O)c4cnc(N)nc4)nc12)CCN3 | 111% and 105% | 90.1% and 72% | 38.9% and 41.3% | 23.1% and 22.7% |  |  | 0.246 µM and 0.224 µM | viability, T/C (compound 0.00316 µM): 107% and 111%; viability, T/C (compound 0.01 µM): 80.8% and 104%
Cn1ncnc1[C@H]1c2n[nH]c(=O)c3cc(F)cc(c23)N[C@@H]1c1ccc(F)cc1 | 117% and 87.6% | 130% and 119% |  |  |  |  | > 0.1 µM | viability, T/C (compound 0.000316 µM): 90.1% and 87.9%; viability, T/C (compound 0.001 µM): 103% and 93.8%; viability, T/C (compound 0.00316 µM): 96.8% and 101%; viability, T/C (compound 0.01 µM): 96.7% and 94.4%
NC(=O)C(=Cn1cnc(-c2cc(C(F)(F)F)cc(C(F)(F)F)c2)n1)c1cncnc1 |  |  |  |  |  |  | 0.14 µM and 0.149 µM | viability, T/C (compound 0.00949 µM): 101% and 94.5%; viability, T/C (compound 0.03 µM): 91% and 92.6%; viability, T/C (compound 0.0949 µM): 59.9% and 62.1%; viability, T/C (compound 0.3 µM): 28.5% and 28.9%; viability, T/C (compound 0.949 µM): 10.5% and 10%; viability, T/C (compound 3 µM): 2.27% and 3.82%
Nc1ccccc1NC(=O)c1ccc(CNC(=O)OCc2cccnc2)cc1 | 102% and 80.7% | 105% and 97.2% | 115% and 90.4% | 96% and 121% | 77.7% and 55.5% | 13.9% and 11.4% | 5.18 µM and 3.66 µM | 
Nc1ccn(C2OC(CO)C(O)C2(F)F)c(=O)n1 (stereo not given) | 35.4% and 24.8% | 9.92% and 9.41% | 13.3% and 10.2% | 14.8% and 12.9% | 10.8% and 9.65% | 8.94% and 10.9% | < 0.0316 µM | 
O=C(c1cc(Cc2n[nH]c(=O)c3ccccc23)ccc1F)N1CCN(C(=O)C2CC2)CC1 | 94.1% and 101% | 93.6% and 90% | 106% and 101% | 107% | 131% and 101% | 177% and 120% | > 10 µM | 
O=c1[nH]cc(F)c(=O)[nH]1 | 91.8% and 91.2% | 103% and 99% | 129% and 86.8% | 54.9% and 55.9% | 34.4% and 37.1% | 31.2% and 36.5% | 1.29 µM and 1.43 µM | 
